d = 2'-deoxy (DNA); r = 2'-OH (RNA)
Tests used:
Format in all cases: cell-based, human
[1] = test system: MG63 and HOB cells; experiment: Cell proliferation / toxicity by MTS assay; conditions: 50 and 100 nM, 24 h post transfection
Method: Cell proliferation was assessed by MTS (3-(4,5-dimethylthiazol-2-yl)-5-(3-carboxymethoxyphenyl)-2-(4-sulfophenyl)-2H-tetrazolium, inner salt) reagent assay: MG63 cells were seeded at a density of 35 000 cells in 24-well culture plates, and cultured for 24 hours as mentioned above. Cells were transfected with 50 nM or 100 nM concentrations of cpRNA and negative control siRNAs with or without MATra-si, while control wells were left untreated. Each transfection experiment was performed in triplicate. Post-transfection, cells were incubated for 24 hours at 37° C. The viable cells were evaluated by MTS assay, using CellTiter 96®AQueousOne Solution Cell Proliferation Assay (Promega, USA) according to the manufacturer's protocol. The enzymatic reduction in MTS to formazan was quantified by an ELISA plate reader (Thermo Scientific) at 490 nm.
Thus, the role of siRNA topography on immune activation and cellular toxicity was investigated because increased RNA length has been reported to cause toxicity with increased interferon (IFN)-β expression. toxicity studies were performed using the MTS assay with two concentrations of GAPDH siRNA (50 and 100 nM) with different overhang lengths (dT2, dT5, and dT8) in MG63 and HOB cells and compared it with the scrambled siRNA sequence (FIG. 5).

[2] = test system: MG63 cells; experiment: Fluorescence / confocal microscopy of cellular distribution in MG63 cells; conditions: fluorescently labelled, transfection reagent free
Method: Cellular uptake experiments were performed by plating cells (1×10^4) in an 8 well chamber slide. At 70% confluency, the cells were transfected with 50 nM Cy3-cpRNA and incubated at 37° C. for 24 h. Control wells were left untreated. Each transfection was performed in triplicate. […] The slides were mounted using Vectashield mounting medium containing 4′, 6-diamidino-2-phenylindole (DAPI) (Vector Labs, Burlingame, Calif.) to stain the nuclei of cells.
MG63—human osteosarcoma cells were cultured in α-MEM (Sigma-Aldrich, Haverhill, UK) medium containing 10% FBS, 1% L-Glutamine, and 1% antibiotics (PeSt) at 37° C. with 5% CO2. One day prior to the siRNA treatment, 35,000 cells were plated per each well of a 24-well plate. On the experiment day, cells were replaced with 10% heat inactivated-FBS containing α-MEM medium with 1% L-Glutamine, and 1% antibiotics (PeSt). Fluorescently (Cy3) labelled CP-siRNA and nicked CP-siRNA having GAPDH targeting sequence (final concentration: 50 nM) was given to the each well. After 24 hours the cells were washed with PBS and fixed with 4% formaldehyde for 20 mins at room temperature and then washed twice with PBS. DAPI (1 ug/ml in PBS) was added to cells for 5 mins and then washed with PBS. The cells were then visualized in Nikon TiU at 20×+1.5× and analysed with the Nikon Imaging software.

[3] = test system: GAPDH; experiment: GAPDH gene knockdown in MG63 cells by RT-PCR; conditions: for GAPDH gene knockdown: 50 nM, 24 h
Method: At 70% confluency, a day prior to transfection, the cells were seeded at a density of 35 000 cells in a 24-well cell culture plate to achieve 60-80% confluence at the day of transfection. Cell penetrating siRNAs (cpRNAs) of different lengths were transfected at 50 nM concentrations with Magnet Assisted Transfection (MATra-si) reagent for siRNAs (IBA GmbH, Göttingen, Germany) according to the manufacturers' protocols. Briefly, the siRNA was mixed with MATra-si reagent composed of supermagnetic ironoxide nanoparticles and incubated for 20 min. A complex was formed which was added to the cells to be transfected. A strong magnetic force was applied beneath the cells for 15 min. This forced the complex to be drawn into the cells by the magnetic field, and as a result the siRNA was delivered directly into the cytosol. For carrier free transfection experiments, cpRNAs were simply added to cells lines MG63, HOB, HCT116, fibroblasts and keratinocytes at 50 nM concentrations. Cells were also transfected with negative control siRNA (scrambled sequence) and cells left untreated were taken as controls. Each transfection was performed in triplicate. Post transfection, cells were incubated for 24 hours.
For the experiments involving lysosomotropic agent chloroquine (CQ), CQ was first neutralized to pH 7.4 using 1 M NaOH prior to use. MG63 cells were transfected with dT2, dT5, dT8, (dT5)2, as(dT5), and bl(dT5) siRNA in presence or absence of 100 μM CQ or using MATra-si and incubated for 24 h. Similar experiments were performed for other cpRNAs namely, dA5, dT5, dG5, (dT5)2, rA5 and dC5. For the control experiment, cells were either left untreated or transfected with negative control siRNA (scrambled sequence). Each transfection experiment was performed in triplicate.
After performing transfection experiments for 24 h, 48 h and 72 h respectively, total RNA was isolated from cells by adding 500 μl of lysis buffer (Qiagen, Germany), followed by homogenization of cell lysates using QIAshredder (Qiagen, Germany). RNA was extracted from cell lysates by RNeasy Mini Kit (Qiagen, Germany). All RNA samples were treated with DNase using TURBO-DNAfree (Ambion, USA). Agilent 2100 BioAnalyzer (Agilent Technologies, Palo Alto, Calif.) was used to confirm high quality of all RNA samples, which reports an RNA Integrity Number (RIN) that takes into account the entire electrophoretic RNA trace produced in the analysis. A RIN of greater than or equal to seven indicates the RNA is suitable for high stringency applications.
cDNA synthesis was performed in triplicate using total RNA reverse transcribed using High Capacity cDNA reverse transcription kit (Applied Biosystems, USA), with non-template control added to ensure a lack of signal in assay background. Reactions were incubated on a 96-well Applied Biosystems 9800 Fast Thermal Cycler PCR System at 37° C. for 60 min followed by 95° C. for 5 min. The real-time PCR reactions were carried out with 10 μl of 2×TaqMan® Universal PCR Master Mix, no AmpErase® UNG (Applied Biosystems, USA), 9 μl diluted cDNA, and 1 μl of TaqMan gene specific assay mix in a 20 μl final reaction volume. Reference gene beta-actin (ACTB) (Applied Biosystems, USA) was selected as control for normalization of TaqMan data. The assay included a no-template control, a standard curve of five serial dilution points (in steps of 3-fold) of cDNA mixture. Probes specific for IFN-α (Hs01022060_m1), IFN-β (Hs01077958_s1), IFN-γ (Hs00985251_m1), ACTB(Hs01060665_g1) and GAPDH (Hs02758991_g1) were purchased from Applied Biosystems. The amplification was carried out using the 7500 Fast Real-Time PCR System (Applied Biosystems, USA) using a 40-cycle program. The 7500 software automatically calculates raw Ct (cycle threshold) values. Data from samples with a Ct value equal to or below 35 were further analyzed. […]

[4] = MG63 cells, MATra-si transfection
[5] = MG63 cells, carrier-free transfection

Substance | cytotoxicity (MTS assay) [1] | cellular distribution [2] | GAPDH gene knockdown [3, 4] [%] | GAPDH gene knockdown [3, 5] [%] | GAPDH mRNA knockdown efficiency over time ([3]; MG63, 50 nM, 24, 48 and 72 h, cpRNA without transfection reagent vs canonical siRNA with transfection reagent) | RNAi activity among different 5-nt candidates ([3]; MG63 cells, FIG. 2B) | enhancement in activity compared to canonical siRNA [3, 4] [%]
dT2: Canonical GAPDH siRNA, sense SEQ ID NO: 1, antisense SEQ ID NO: 2, dTdT 3′-overhang on both strands (sense CCGAGCCACAUCGCUCAGATT; antisense UCUGAGCGAUGUGGCUCGGTT; sugars from the 5' end r19 d2, backbone not given here) [reference compound] | do not impose toxicity | localized distribution to endosome | 60 | 28 | – | – | –
dT5: GAPDH siRNA, sense SEQ ID NO: 3 with dT5 3′-overhang, antisense SEQ ID NO: 2 with dT2 (sense CCGAGCCACAUCGCUCAGATTTTT; antisense UCUGAGCGAUGUGGCUCGGTT; sense: sugars from the 5' end r19 d5, backbone not given here; antisense: sugars from the 5' end r19 d2, backbone not given here) | do not impose toxicity | perinuclear localization within cytosol | – | 80 | higher gene knockdown efficiency for over 72 hrs | highest RNAi activity | 20

— patent publication US20180265867A1, “NUCLEIC ACID MOLECULES WITH ENHANCED ACTIVITY” (priority 2015, published 2018)
